Assay results as given in ChEMBL document CHEMBL6074641, “Polypharmacological Drug Design Guided by Integrating Phenotypic and Restricted Fragment Docking Strategies” (J Med Chem, 2024).
Activity calls are given as the source filed them. The rule behind the calls is not given here.

How the values were obtained:
[1] = target: T1, Receptor-interacting serine/threonine-protein kinase 1 (Homo sapiens, UniProt Q13546); test: (§1) Inhibition of recombinant RIPK1 (1 to 327 residues) (unknown origin) expressed in Escherichia coli BL21([…]) using MBP as substrate preincubated for 15 mins followed by substrate and ATP addition and measured after 90 mins by ADP-Glo luminescence […] assay
T1 sequence (Q13546 whole entry): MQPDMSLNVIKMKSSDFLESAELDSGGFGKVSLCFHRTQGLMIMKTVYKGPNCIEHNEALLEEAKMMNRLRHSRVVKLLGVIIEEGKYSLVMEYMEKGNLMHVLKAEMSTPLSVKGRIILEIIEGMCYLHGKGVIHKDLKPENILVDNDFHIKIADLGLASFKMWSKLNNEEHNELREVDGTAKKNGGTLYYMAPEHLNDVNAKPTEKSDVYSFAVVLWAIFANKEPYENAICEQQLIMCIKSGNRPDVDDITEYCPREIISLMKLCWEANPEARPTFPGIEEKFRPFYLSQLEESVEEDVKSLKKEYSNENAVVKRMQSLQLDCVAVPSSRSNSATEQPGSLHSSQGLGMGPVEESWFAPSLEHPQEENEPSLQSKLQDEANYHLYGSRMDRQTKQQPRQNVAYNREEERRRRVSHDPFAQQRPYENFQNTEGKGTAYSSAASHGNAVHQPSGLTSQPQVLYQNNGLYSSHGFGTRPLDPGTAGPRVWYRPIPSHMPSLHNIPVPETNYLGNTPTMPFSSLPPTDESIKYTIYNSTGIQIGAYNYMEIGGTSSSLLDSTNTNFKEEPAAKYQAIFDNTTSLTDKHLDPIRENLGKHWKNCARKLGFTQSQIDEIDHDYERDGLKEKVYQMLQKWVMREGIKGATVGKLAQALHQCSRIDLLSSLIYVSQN

[2] = target: Mitogen-activated protein kinase kinase kinase kinase 4 (Homo sapiens, UniProt O95819); test: Inhibition of recombinant MAP4K4 (1 to 328 residues) (unknown origin) expressed in Escherichia coli BL21([…]) using MBP as substrate preincubated for 15 mins followed by substrate and ATP addition and measured after 90 mins by ADP-Glo luminescence […] assay
Sequence of Mitogen-activated protein kinase kinase kinase kinase 4 (O95819 whole entry, the tested form may be a part): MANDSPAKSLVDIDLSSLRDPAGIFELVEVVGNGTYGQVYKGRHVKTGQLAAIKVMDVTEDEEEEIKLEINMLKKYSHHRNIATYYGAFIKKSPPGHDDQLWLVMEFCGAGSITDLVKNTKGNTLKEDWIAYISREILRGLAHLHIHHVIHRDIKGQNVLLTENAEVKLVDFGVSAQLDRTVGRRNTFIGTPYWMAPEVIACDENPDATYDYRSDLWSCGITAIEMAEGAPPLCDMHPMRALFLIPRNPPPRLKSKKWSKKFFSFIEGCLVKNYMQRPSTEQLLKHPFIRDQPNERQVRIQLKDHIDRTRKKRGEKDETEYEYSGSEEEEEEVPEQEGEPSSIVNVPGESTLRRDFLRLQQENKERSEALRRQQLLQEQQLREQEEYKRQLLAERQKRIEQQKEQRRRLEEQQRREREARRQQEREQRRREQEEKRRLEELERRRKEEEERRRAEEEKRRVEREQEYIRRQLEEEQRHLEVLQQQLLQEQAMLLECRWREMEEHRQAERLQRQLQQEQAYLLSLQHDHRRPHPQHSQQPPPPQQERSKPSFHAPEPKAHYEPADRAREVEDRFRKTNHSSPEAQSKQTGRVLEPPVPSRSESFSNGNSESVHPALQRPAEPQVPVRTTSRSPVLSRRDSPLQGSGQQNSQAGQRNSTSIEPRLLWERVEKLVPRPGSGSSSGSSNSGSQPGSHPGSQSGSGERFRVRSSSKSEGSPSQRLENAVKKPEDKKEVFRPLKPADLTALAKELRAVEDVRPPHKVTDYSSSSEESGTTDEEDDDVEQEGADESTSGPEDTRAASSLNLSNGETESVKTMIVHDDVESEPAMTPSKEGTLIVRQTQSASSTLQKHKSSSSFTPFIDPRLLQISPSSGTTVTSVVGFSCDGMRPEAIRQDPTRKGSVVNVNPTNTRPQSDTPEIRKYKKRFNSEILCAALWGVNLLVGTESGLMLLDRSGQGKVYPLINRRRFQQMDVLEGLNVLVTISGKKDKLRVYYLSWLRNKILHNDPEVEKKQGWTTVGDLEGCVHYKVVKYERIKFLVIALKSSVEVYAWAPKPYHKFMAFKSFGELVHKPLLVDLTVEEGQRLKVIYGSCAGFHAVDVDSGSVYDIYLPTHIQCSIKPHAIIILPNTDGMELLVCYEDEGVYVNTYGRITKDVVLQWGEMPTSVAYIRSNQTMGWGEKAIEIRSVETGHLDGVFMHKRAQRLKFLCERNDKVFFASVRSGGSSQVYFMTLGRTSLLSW

[3] = target: ALK tyrosine kinase receptor (Homo sapiens, UniProt Q9UM73); test: Inhibition of recombinant ALK (1060 to end residues) (unknown origin) expressed in Escherichia coli […] using IGF1Rtide as substrate preincubated for 15 mins followed by substrate and ATP addition and measured after 90 mins by ADP-Glo luminescence […] assay
Sequence of ALK tyrosine kinase receptor (Q9UM73 whole entry): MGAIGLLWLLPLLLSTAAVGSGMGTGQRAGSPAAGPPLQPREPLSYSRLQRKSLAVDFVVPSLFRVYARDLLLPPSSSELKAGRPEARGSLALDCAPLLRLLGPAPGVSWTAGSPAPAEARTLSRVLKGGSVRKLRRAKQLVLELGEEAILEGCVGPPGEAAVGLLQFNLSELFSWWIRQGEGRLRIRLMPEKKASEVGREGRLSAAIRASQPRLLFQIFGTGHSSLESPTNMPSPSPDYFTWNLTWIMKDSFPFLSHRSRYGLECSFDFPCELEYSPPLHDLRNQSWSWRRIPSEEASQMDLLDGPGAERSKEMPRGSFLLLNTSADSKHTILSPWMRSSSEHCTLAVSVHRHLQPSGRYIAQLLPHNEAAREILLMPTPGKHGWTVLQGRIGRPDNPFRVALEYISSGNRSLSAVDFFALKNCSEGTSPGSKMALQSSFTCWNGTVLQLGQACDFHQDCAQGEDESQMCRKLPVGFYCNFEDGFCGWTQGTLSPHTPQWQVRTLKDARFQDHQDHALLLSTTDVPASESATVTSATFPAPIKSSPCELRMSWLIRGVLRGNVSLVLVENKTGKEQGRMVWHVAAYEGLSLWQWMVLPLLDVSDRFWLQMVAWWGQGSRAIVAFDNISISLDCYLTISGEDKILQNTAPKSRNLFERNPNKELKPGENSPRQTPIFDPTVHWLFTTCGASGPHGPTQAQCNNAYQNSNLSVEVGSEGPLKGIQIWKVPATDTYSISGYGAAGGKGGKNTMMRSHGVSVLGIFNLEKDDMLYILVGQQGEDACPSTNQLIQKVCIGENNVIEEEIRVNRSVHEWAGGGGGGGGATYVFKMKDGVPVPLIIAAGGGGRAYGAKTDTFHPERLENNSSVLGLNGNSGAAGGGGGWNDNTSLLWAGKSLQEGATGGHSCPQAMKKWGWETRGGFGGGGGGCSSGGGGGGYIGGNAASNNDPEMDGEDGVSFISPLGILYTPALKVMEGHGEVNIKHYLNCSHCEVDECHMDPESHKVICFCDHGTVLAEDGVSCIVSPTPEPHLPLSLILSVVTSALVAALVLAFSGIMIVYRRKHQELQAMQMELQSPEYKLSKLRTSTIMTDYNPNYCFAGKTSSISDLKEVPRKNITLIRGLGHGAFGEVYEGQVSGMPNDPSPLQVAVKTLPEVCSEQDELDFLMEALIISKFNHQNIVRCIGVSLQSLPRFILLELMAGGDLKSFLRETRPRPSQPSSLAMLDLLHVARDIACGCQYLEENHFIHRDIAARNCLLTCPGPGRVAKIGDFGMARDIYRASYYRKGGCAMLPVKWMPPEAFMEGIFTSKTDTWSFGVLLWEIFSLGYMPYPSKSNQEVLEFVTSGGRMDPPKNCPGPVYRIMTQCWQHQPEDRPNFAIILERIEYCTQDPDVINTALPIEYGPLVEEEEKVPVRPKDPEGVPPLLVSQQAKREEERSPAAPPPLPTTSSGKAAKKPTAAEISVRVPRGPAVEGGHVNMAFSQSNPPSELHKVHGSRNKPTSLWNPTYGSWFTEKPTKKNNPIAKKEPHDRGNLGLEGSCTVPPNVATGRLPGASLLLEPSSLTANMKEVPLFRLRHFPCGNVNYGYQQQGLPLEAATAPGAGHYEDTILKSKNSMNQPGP

BV-2 [4] = test: cells; conditions: Mus musculus
BV-2 [5] = test: Cytotoxicity against mouse BV-2 cells; type: toxicity, cell-based
BV-2 [6] = test: Anti-necroptosis activity in LPS/zVAD stimulated mouse BV-2 cells preincubated with LPS for 11 hrs followed by compound addition for 1 hr and exposed to zVAD-fmk for another 24 hrs by Cellcounting-Lite 2.0 luminescent cell viability assay; conditions: time 25.0 hrs
[7] = target: T2, Receptor-interacting serine/threonine-protein kinase 1 (Homo sapiens) (UniProt Q13546); test: as §1; conditions: time 105.0 min
T2 sequence (whole entry): T1 sequence (Q13546 whole entry)

Compound | EC50 (BV-2 [4]) | IC50 [1] | IC50 [2] | IC50 [3] | Activity (BV-2 [5]) | Activity (BV-2 [6]) | Inhibition activity call [7]
Cc1cc(F)cc(Nc2ncc(Nc3ccc(Oc4ccccc4)cc3)cc2C(N)=O)c1 | 2.66 µM | 0.87 µM | 4.29 µM | 3.79 µM |  |  | 
C[C@@H](Oc1cc(-c2cnn(C3CCNCC3)c2)cnc1N)c1c(Cl)ccc(F)c1Cl [CRIZOTINIB] |  |  |  |  | Non-toxic |  | 
Cc1cc(Nc2ncc(Cl)c(Nc3ccccc3S(=O)(=O)C(C)C)n2)c(OC(C)C)cc1C1CCNCC1 [CERITINIB] |  |  |  |  | Toxic | inactive | 
COc1ccc(Nc2cnc(Nc3cc(C)cc(F)c3)c(C(N)=O)c2)c(C)c1 | > 3 µM |  | 9.26 µM |  |  |  | 
CN(C(=O)c1cccn(Cc2cccc(F)c2)c1=O)c1ccccc1 |  |  |  |  |  | Active | Active
Nc1cc(-c2ccc(Br)cc2)nn1Cc1ccccc1 |  |  |  |  |  | Active | Active
COc1ccc(Nc2cnc(Nc3cc(C)cc(F)c3)c(C(N)=O)c2)c(F)c1 | 1.54 µM | 0.96 µM | 3.16 µM | 1.46 µM |  |  | 
Cc1cc(C)c(C(N)=O)c(Nc2ccc(Cl)cc2)n1 |  |  |  |  |  | Active | Active

Further lines, with some results ahead:

EC50 (BV-2 [4]) | Compound | IC50 [1] | IC50 [2] | IC50 [3] | Activity (BV-2 [5]) | Activity (BV-2 [6]) | Inhibition activity call [7]
0.14 µM | C=Cc1ccc(Nc2cnc(Nc3cc(C)cc(F)c3)c(C(N)=O)c2)cc1 | 0.48 µM | 0.35 µM |  |  |  | 
> 3 µM | Cc1cc(F)cc(Nc2ncc(Nc3cccc(C#N)c3)cc2C(N)=O)c1 | 1.21 µM | 0.53 µM | 2.24 µM |  |  | 
0.2 µM | Cc1cc(F)cc(Nc2ncc(Nc3ccc4c(c3)CCCC4)cc2C(N)=O)c1 | 0.69 µM | 2.26 µM |  |  |  | 
> 3 µM | Cc1cc(F)cc(Nc2ncc(Nc3ccccc3C)cc2C(N)=O)c1 |  | 0.97 µM |  |  |  | 
> 3 µM | Cc1cc(F)cc(Nc2ncc(Nc3ccccc3Cl)cc2C(N)=O)c1 | 1.3 µM | 0.76 µM | 0.49 µM |  |  | 
0.15 µM | Cc1cc(F)cc(Nc2ncc(Nc3ccc(F)cc3F)cc2C(N)=O)c1 | 0.29 µM | 1.92 µM | 0.78 µM |  |  | 
0.44 µM | Cc1cc(F)cc(Nc2ncc(Nc3ccc(C(C)(C)C)cc3)cc2C(N)=O)c1 | 0.5 µM |  | 0.83 µM |  |  | 
